Test results as given in publication PMC6566874, “Comparative study of the antidiabetic potential of Paederia foetida twig extracts and compounds from two different locations in Malaysia” (Pharmaceutical Biology, 2019).

Molecular target: T1, α-amylase
T1 construct: PDB 4W93 was used for docking only
Assay: iodine-starch absorbance assay, […] nm
Assay type: biochemical
Conditions: soluble starch substrate, 0.1 M sodium phosphate buffer, 37 °C, 15 min preincubation; read-out: α-Amylase inhibition activity IC50 (μg/mL) / Pahang (PFP)

With `COc1cc2ccc(=O)oc2cc1O` [compound 1, scopoletin] the IC50 was 0.052 ± 0.13 µM.
